Test results: US9868763B2, “Modulators of protease activated receptors” (The University of Queensland, priority 2011, dated 2018)
Entries after “also recorded” stand apart in the source; their conditions may differ.

Assays:
Water solubility = assay type: physicochemical
[1] = test system: collagen-induced arthritis; experiment: Collagen-induced arthritis; assay type: in vivo, Wistar rat
Experimental: Protocols were based on those described (Lin H S et al., Br J Pharmacol 2007, 150(7):862-72; Nishikawa M et al., Arthritis Rheum 2003, 48(9):2670-81). Female Wistar rats (200-250 g, n′ 14) were immunised on Day 0 with Bovine nasal collagen (200 μg, 50:50 0.05 M acetic acid and Freund's incomplete adjuvant, s.c. tail base). Sham animals received vehicle only (no collagen; 50:50 0.05 M acetic acid and Freund's incomplete adjuvant, s.c. tail base). Boosters of the same dose were given on Day 7. Daily oral dosage of PAR-2 antagonist 52 (10 mg/kg in olive oil, 500 μL, p.o. weight adjusted) or olive oil vehicle (arthritic control, and sham) began on Day 7. Paw thickness and width (as above), body weight, disease activity score and mechanical nociceptive thresholds were measured every second day from Day 10-28.
Disease Activity Index (DAI) and mechanical hyperalgesia were assessed and qualitatively scored 0 to 4+. The DAI is based on multiple characteristic disease pathologies, incorporating changes in mobility, inflammation and discomfort/pain (maximum total score of 18). Plantar mechanical nociceptive thresholds were measured using Semmes Weinstein Von Frey Anaesthesiometers (Touch Test Sensory Evaluators, Stoelting, Ill., USA).
Day 28 all rats were euthanised and hind paws fixed in 4% paraformaldehyde, decalcified and embedded in paraffin wax and cut at […]. Sections were stained with H&E for general tissue architecture, with Masson's Trichrome for collagen loss or with alcian blue/safranin-O for mast cells (42). Tissue macrophages were labeled using ED1 monoclonal antibody (for immature rat macrophage/monocytes, Serotec) using standard IHC techniques. Microscopic analysis and cell counts were made from multiple (>6) images/paw with aid of ImageJ 1.42q software.

[2] = alcian blue/safranin-O staining

CC[C@H](C)[C@@H](NC(=O)[C@H](CC1CCCCC1)NC(=O)c1ccno1)C(=O)N1CCC2(C=Cc3ccccc32)CC1 [Compound 52]
water solubility (Water solubility): not water soluble enough to administer i.v. | collagen-induced rat arthritis ([1]; 10 mg/kg/day p.o.): attenuated collagen-induced rat arthritis | lowered mechanical nociceptive threshold (mechanical hyperalgesia) ([1]; 10 mg/kg/day p.o., Day 28): prevented the mechanical hyperalgaesia; also recorded: removed | maximal hind paw swelling ([1]; 10 mg/kg/day p.o., Day 28, change from baseline): 25±9% | maximal DAI (disease activity index) ([1]; 10 mg/kg/day p.o., Day 28, maximum total score 18): 1.6±0.9 | animals affected by arthritic signs ([1]; 10 mg/kg/day p.o., by Day 28): 60% | degranulated mast cells of all mast cells [1, 2]: less than 5% | inactive mast cells of all mast cells [1, 2]: ~80% | collagen loss (Masson's Trichrome) ([1]; compared to CIA-controls): significantly reduced collagen loss | histopathological changes (H&E, tibia-talus joints) ([1]; daily administration): almost completely prevented | arthritic-like up regulation of ED1-macrophages ([1]; rat, in vivo): prevented
